# Data published in PMC4664946, “The standalone aminopeptidase PepN catalyzes the maturation of blasticidin S from leucylblasticidin S” (Scientific Reports, 2015).
# Experiments:
# PepN1 = biological target: T1, PepN1 (Streptomyces lividans, UniProt Q11010); experiment: HPLC (UV […] nm) of hydrolysis to blasticidin S; assay type: biochemical; details: pH 5 to 9 tested; 30 °C; hydrolysis of the beta-amide bond to leucine
# T1 construct: gene pepN; closely located to PepN2 gene
# T1 sequence (Q11010 1-857): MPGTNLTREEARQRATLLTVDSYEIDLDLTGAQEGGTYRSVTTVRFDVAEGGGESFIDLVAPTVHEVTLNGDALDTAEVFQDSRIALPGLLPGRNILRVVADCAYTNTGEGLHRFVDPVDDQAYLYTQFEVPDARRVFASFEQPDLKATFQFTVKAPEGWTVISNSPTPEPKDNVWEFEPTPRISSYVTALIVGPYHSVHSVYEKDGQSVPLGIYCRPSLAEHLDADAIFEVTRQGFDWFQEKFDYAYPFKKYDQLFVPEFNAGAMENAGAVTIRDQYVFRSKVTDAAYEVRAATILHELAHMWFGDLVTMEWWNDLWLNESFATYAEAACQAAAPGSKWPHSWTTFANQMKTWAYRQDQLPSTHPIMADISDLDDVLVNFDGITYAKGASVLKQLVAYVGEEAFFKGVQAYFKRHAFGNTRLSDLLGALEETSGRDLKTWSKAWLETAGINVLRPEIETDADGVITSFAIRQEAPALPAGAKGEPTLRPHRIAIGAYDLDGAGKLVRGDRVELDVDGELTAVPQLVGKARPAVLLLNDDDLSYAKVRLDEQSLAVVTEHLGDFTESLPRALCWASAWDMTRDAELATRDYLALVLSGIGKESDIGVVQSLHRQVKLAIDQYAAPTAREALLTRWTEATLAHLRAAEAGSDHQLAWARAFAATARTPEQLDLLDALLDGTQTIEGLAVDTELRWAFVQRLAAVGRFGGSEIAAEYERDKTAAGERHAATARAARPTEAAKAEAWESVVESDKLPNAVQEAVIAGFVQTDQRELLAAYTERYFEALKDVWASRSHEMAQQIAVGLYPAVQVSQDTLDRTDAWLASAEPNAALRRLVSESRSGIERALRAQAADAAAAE
# PepN = biological target: T2, PepN (Escherichia coli, UniProt P04825); experiment: HPLC (UV […] nm) of hydrolysis to blasticidin S; assay type: biochemical; details: 30 °C; 1 μM LBS overnight; pH 5 to 9 tested
# T2 sequence (P04825 2-870): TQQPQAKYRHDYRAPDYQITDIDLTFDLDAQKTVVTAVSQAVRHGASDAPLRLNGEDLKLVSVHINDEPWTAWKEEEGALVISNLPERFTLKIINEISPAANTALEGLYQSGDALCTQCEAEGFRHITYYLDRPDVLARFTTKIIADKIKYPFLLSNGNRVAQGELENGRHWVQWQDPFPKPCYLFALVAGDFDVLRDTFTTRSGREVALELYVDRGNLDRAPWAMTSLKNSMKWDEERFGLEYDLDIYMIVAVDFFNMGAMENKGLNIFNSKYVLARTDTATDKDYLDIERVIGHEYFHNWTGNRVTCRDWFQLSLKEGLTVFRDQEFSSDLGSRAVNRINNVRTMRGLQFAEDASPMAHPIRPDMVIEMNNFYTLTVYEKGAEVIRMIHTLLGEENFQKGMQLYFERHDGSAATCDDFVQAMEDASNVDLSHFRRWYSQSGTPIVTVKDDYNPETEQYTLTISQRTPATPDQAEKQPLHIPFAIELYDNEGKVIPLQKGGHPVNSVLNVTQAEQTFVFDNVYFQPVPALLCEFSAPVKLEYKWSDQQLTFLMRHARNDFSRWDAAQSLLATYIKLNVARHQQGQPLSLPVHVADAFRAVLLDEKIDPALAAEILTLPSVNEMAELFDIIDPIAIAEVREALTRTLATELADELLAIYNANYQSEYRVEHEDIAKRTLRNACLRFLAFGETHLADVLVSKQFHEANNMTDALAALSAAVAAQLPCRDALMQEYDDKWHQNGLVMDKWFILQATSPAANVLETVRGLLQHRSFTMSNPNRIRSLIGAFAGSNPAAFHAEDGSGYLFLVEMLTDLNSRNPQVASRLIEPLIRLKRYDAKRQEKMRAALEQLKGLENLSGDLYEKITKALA
compound,measurement,setting,value
"CC(C)C[C@H](N)C(=O)N[C@@H](CCN(C)C(=N)N)CC(=O)N[C@H]1C=C[C@H](n2ccc(N)nc2=O)O[C@@H]1C(=O)O [LBS, leucylblasticidin S]",HPLC (UV 272 nm) of hydrolysis to blasticidin S,PepN1,PepN and PepN1 exhibited similar LBS hydrolyzing efficiency
same,HPLC (UV 272 nm) of hydrolysis to blasticidin S,PepN,PepN and PepN1 exhibited similar LBS hydrolyzing efficiency
